Measurements: patent US6242216A, “Nucleic acids encoding a functional human purinoreceptor P2X2 and P2X4, and methods of production and use thereof” (Abbott Laboratories, priority 1998, dated 2001)
Where “and” joins values, the source holds several entries; their conditions need not be identical. Identical values can stand only once. Like-named read-outs stand apart in the source and are kept apart here.

Assays:
hP2X2c = assay: Two-electrode voltage-clamp of Xenopus oocytes injected with hP2X2c RNA; assay type: cell-based, human; settings: 30 μM ATP, transient external application
Experimental: (§1) To assess function of the human P2X2 receptors, RNA was synthesized from the clones using the T7 bacterial promoter present on the pCRscript vector and reagents from Ambion (Message Machine; Ambion, Inc., Austin Tex.).
(§2) Adult female frogs (Xenopus laevis) were anesthetized with 0.2% tricaine before surgery. During surgery, sections of one ovary were removed and oocytes were denuded of overlying follicle cells by agitation for 1-2 hours in 2 mg/ml collagenase (Sigma type IA) in low-Ca^2+ Barth's solution containing (in mM): 88 NaCl, 2.5 KCl, 1.0 MgCl2 10 Na-HEPES (pH 7.4) plus 100 μg/ml gentamicin. Selection of stage V and VI oocytes was begun after approximately 50% of the cells were denuded. Cytoplasmic injections of 50 ng hP2X2a-d RNA were performed on denuded oocytes using a glass microelectrode. Only one receptor subtype RNA was injected per cell. […]
(§3) Transmembrane currents were recorded using two-electrode voltage-clamp techniques with an Axoclamp-2 A amplifier, and were collected and analyzed using pCLAMP software (Axon Instruments). […] Responses to ATP and α,βme-ATP were routinely recorded at room temperature while the oocyte membrane was voltage-clamped at -60 mV. […]

hP2X2b receptors = biological target: T1, hP2X2b receptors (Homo sapiens, UniProt Q9UBL9); assay: Two-electrode voltage-clamp of Xenopus oocytes expressing hP2X2b receptors; assay type: cell-based
T1 construct: expressed in transfected cells; host or cells: Xenopus laevis oocytes, cytoplasmic injection of 50 ng in vitro transcribed RNA, one subtype per cell
T1 sequence (Q9UBL9 1-404 isoform Q9UBL9-2): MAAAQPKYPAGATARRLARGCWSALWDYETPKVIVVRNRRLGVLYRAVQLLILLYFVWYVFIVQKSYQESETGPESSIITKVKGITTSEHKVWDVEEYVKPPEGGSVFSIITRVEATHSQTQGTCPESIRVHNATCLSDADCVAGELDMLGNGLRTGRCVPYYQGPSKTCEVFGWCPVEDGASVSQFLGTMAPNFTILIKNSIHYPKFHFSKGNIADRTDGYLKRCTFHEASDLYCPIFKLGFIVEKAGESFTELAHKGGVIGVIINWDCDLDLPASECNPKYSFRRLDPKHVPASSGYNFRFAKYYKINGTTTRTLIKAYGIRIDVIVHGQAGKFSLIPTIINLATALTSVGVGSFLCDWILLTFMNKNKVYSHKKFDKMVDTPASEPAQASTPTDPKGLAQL
Experimental: as §1
(§4) Adult female frogs (Xenopus laevis) were anesthetized with 0.2% tricaine before surgery. During surgery, sections of one ovary were removed and oocytes were denuded of overlying follicle cells by agitation for 1-2 hours in 2 mg/ml collagenase (Sigma type IA) in low-Ca^2+ Barth's solution containing (in mM): 88 NaCl, 2.5 KCl, 1.0 MgCl2 10 Na-HEPES (pH 7.4) plus 100 μg/ml gentamicin. Selection of stage V and VI oocytes was begun after approximately 50% of the cells were denuded. Cytoplasmic injections of 50 ng hP2X2a-d RNA were performed on denuded oocytes using a glass microelectrode. Only one receptor subtype RNA was injected per cell. Oocytes were used for recording 1-2 days after injection and were maintained at 16-19° C. in normal Barth's solution (incubation medium in mM): 90 NaCl, 1.0 KCl, 0.66 NaNO3, 0.74 CaCl2, 0.82 MgCl2, 2.4 NaHCO3, 2.5 Na-pyruvate, 10 Na-HEPES (pH 7.4) plus 100 μg/ml gentamicin.
(§5) The standard recording solution contained (in mM): 96 NaCl, 2.0 KCl, 1.8 BaCl2, 1.0 MgCl2, 5.0 Na-pyruvate, and 5.0 Na-HEPES (pH 7.4). BaCl2 was replaced with CaCl2 (1 mM) in some experiments without significant effects on the pharmacological properties of the receptors. All oocyte solutions were diluted in distilled H2 O from 10×stock solutions. Concentrated stocks of agonists and antagonists were made in distilled H2 O and then serially diluted in recording solution to desired final concentrations. All chemicals and agonists (ATP and α,βme-ATP) were obtained from Sigma Chemical Company.
(§6) Transmembrane currents were recorded using two-electrode voltage-clamp techniques with an Axoclamp-2 A amplifier, and were collected and analyzed using pCLAMP software (Axon Instruments). Electrodes (1.5-2.0 M'.OMEGA.) were filled with 120 mM KCl. Responses to ATP and α,βme-ATP were routinely recorded at room temperature while the oocyte membrane was voltage-clamped at -60 mV. […]

human P2X4 receptor = biological target: T2, human P2X4 receptor (Homo sapiens, UniProt Q99571); assay: Two-electrode voltage-clamp of Xenopus oocytes expressing recombinant human P2X4 receptors; assay type: cell-based
T2 construct: expressed in transfected cells; host or cells: Xenopus laevis oocytes, nuclear injection of P2X4-pCDNA3.1 DNA (10 ng) or cytoplasmic injection of RNA (50 ng)
T2 sequence (Q99571 1-388): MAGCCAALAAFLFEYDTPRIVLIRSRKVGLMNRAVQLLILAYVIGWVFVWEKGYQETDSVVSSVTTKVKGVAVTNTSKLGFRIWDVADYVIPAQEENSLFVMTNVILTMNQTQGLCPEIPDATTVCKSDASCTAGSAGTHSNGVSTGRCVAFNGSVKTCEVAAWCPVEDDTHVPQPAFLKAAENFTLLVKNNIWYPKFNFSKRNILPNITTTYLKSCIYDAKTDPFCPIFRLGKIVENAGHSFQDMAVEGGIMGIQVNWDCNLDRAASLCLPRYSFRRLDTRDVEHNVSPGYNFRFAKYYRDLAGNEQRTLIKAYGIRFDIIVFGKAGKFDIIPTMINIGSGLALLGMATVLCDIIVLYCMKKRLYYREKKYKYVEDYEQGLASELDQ
Experimental: Responses were measured at a holding potential of -60 mV in modified Barth's solution containing 10 mM BaCl2 and lacking CaCl2 and MgCl2. However, in some experiments, the cell potential was intentionally varied in order to determine the response current-voltage relationship. Agonist was applied briefly using a computer-controlled solenoid valve and a push/pull applicator positioned to within 200-400 μm from the oocyte. Responses were recorded by computer in synchrony with agonist application. Antagonists were included with agonist in the push/pull applicator and were applied to the bath by superfusion for at least 3 minutes before application of agonist. Responses were quantified by measuring the peak amplitude.
The clone was grown up and prepared in large scale using the QlAgen maxiprep DNA preparation system according to the manufacturer's instructions. The DNA was ethanol precipitated and resuspended in TE buffer. For RNA production, the P2X4 -pCNDA3.1 cvonstruct was linearized by digestion with the restriction enzyme Notl and P2X4 messenger RNA was produced using the T7 promoter in this vector and the Ambion mMessage mMachine in vitro transcription kit according to the manufacturer's instructions.
For functional analysis of human P2X4 receptors, 10 ng of human P2X4 receptor DNA prepared as described above was injected into the nucleus of Xenopus oocytes. Alternatively, 50 ng of human P2X4 receptor RNA prepared as described above was injected into the ooxyte cytoplasm. Oocytes were incubated in normal Barth's solution containing 100 μg/ml gentamicin for 2-7 days following injection. The response to 10 μM ATP was then recorded.

hP2X2a receptors = biological target: T3, hP2X2a receptors (Homo sapiens, UniProt Q9UBL9); assay: Two-electrode voltage-clamp of Xenopus oocytes expressing hP2X2a receptors; assay type: cell-based
T3 construct: expressed in transfected cells; host or cells: Xenopus laevis oocytes, cytoplasmic injection of 50 ng in vitro transcribed RNA, one subtype per cell
T3 sequence (Q9UBL9 1-471): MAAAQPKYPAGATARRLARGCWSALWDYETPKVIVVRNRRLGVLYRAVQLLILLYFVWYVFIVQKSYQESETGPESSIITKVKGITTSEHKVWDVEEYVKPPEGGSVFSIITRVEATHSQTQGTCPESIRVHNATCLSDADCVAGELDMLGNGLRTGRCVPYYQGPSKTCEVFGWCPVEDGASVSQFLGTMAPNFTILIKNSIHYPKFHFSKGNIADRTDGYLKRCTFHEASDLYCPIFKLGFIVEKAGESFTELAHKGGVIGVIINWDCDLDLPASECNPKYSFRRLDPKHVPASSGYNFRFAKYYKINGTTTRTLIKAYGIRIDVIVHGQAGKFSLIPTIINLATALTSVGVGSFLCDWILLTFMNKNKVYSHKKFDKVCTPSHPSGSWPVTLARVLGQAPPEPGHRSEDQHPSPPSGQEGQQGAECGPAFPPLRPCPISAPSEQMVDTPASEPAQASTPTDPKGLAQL
Experimental: as §1, §4, §5, §6

hP2X2d = assay: Two-electrode voltage-clamp of Xenopus oocytes injected with hP2X2d RNA; assay type: cell-based, human; settings: 30 μM ATP, transient external application
Experimental: as §1, §2, §3

Q: What does the source list for Nc1ncnc2c1ncn2[C@@H]1O[C@H](COP(=O)(O)OP(=O)(O)OP(=O)(O)O)[C@@H](O)[C@H]1O [ATP]?
A: agonist effect on receptor current (hP2X2c): had no effect; Hill coefficient (nH) (hP2X2b receptors; oocytes expressing hP2X2b, three cells): 1.5; EC50 (hP2X2b receptors; oocytes expressing hP2X2b, three cells, -60 mV, read-out: mean ATP EC50 (peak inward current)): 20000 nM; EC50 (human P2X4 receptor; DNA-injected oocytes, concentration-response 0.1-1000 μM ATP): ~2000 nM and 1000 to 2000 nM; EC50 (human P2X4 receptor; RNA-injected oocytes, read-out: ATP EC50): 1000 to 2000 nM; mixed-conductance cation current on extracellular application of ATP (human P2X4 receptor; oocytes injected with human P2X4 receptor DNA): 100-1000 nA; Hill coefficient (nH) (hP2X2a receptors; oocytes expressing hP2X2a, four cells): 1.5; EC50 (hP2X2a receptors; oocytes expressing hP2X2a, four cells, -60 mV, read-out: mean ATP EC50 (peak inward current)): 16000 nM; agonist effect on receptor current (hP2X2d): had no effect

Q: Cc1ccc(C(=O)Nc2ccc(S(=O)(=O)O)c3cc(S(=O)(=O)O)cc(S(=O)(=O)O)c23)cc1NC(=O)c1cccc(NC(=O)Nc2cccc(C(=O)Nc3cc(C(=O)Nc4ccc(S(=O)(=O)O)c5cc(S(=O)(=O)O)cc(S(=O)(=O)O)c45)ccc3C)c2)c1 [suramin] was tested. Which “antagonism of ATP-induced currents” value (human P2X4 receptor; DNA-injected oocytes, suramin 10 μM, ATP 10 μM) did it give?
A: failed to depress

Q: And the “antagonism of ATP responses” value (human P2X4 receptor; RNA-injected oocytes, suramin 1 μM, ATP 3 μM)?
A: failed to depress

Q: And the “antagonism of ATP responses” value (human P2X4 receptor; RNA-injected oocytes, suramin 10 μM, ATP 3 μM)?
A: failed to depress

Q: What about the remaining activity at 100 µM (human P2X4 receptor; RNA-injected oocytes, suramin 100 μM, ATP 3 μM, read-out: ATP response remaining, % of control) of the same compound?
A: ~80%

Q: Which “agonist effect on receptor current” value (hP2X2b receptors; 100 μM agonist, hP2X2b) does the source give for Nc1ncnc2c1ncn2[C@@H]1O[C@H](COP(=O)(O)CP(=O)(O)OP(=O)(O)O)[C@@H](O)[C@H]1O [αβMe-ATP, α,β-methylene-ATP] here?
A: had no effect

Q: What about the Emax (human P2X4 receptor; RNA-injected oocytes, read-out: maximal current relative to maximal ATP current) of the same compound?
A: 20 to 25%

Q: And the “agonist effect on receptor current” value (hP2X2a receptors; 100 μM agonist, hP2X2a)?
A: had no effect
